Compound in one experiment: NC(=O)CCCCC1CCSS1 [lipoamide]
As to the kind of experiment: thermal stability z-score vs DMSO; higher = more thermally stabilized by treatment. The note with it: HeLa, lipoamide concentration 100 µM. Here is the method:
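Cellular thermal proteome profiling in HeLa cells. Cells were treated with 100 µM lipoamide for 1 h, with or without 1 mM arsenate for a further 1 h, then heated to ten temperatures (37-66.3 °C), and soluble protein was quantified by TMT mass spectrometry relative to 0.1% DMSO controls. The thermal stability score (sum of log2 fold changes minus the abundance score) was transformed to a z-score; mean of n = 3 experiments.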

Compound in a further experiment: O=[As]([O-])(O)O.[K+] [potassium arsenate]
The description is as above. The settings on record: HeLa; arsenate concentration 1 mM. Here is the method: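 Cellular thermal proteome profiling in HeLa cells treated with 1 mM arsenate for 1 h (DMSO pretreatment), heated to ten temperatures (37-66.3 °C). Soluble protein was quantified by TMT mass spectrometry relative to DMSO controls; the thermal stability score was transformed to a z-score; mean of n = 3 experiments.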

Setting [1] is: arsenate co-treatment: 1 mM arsenate 1 h.
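Note: each temperature applied for 3 min, abundance score taken as mean log2 fold change at the two lowest temperatures, z-score obtained by mean subtraction and division by SD.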

Sequence of UniProt Q96HY6 (Q96HY6 whole entry): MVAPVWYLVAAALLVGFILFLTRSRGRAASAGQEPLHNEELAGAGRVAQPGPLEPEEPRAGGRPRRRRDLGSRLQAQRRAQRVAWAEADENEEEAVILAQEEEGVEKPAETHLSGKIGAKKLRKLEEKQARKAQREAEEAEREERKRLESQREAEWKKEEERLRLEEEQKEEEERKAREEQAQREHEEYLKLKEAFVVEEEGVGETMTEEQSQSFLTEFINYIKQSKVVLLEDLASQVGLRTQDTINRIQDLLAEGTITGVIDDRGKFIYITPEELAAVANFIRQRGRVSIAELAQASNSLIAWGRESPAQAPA
Sequence of UniProt Q9BWH2 (Q9BWH2 whole entry): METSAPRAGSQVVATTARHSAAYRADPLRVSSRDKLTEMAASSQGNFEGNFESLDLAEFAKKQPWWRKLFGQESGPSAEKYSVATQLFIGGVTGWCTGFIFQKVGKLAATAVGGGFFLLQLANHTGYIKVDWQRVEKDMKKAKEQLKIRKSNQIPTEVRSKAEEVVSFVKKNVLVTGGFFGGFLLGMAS
Sequence of UniProt Q969Q5 (Q969Q5 whole entry): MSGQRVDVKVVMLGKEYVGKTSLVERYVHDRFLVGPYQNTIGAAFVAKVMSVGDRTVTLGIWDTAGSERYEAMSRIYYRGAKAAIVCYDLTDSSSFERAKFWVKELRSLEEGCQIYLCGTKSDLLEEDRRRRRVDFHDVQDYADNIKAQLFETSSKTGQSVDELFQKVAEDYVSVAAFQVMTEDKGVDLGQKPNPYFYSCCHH
Sequence of UniProt Q9C0H2 (Q9C0H2 whole entry): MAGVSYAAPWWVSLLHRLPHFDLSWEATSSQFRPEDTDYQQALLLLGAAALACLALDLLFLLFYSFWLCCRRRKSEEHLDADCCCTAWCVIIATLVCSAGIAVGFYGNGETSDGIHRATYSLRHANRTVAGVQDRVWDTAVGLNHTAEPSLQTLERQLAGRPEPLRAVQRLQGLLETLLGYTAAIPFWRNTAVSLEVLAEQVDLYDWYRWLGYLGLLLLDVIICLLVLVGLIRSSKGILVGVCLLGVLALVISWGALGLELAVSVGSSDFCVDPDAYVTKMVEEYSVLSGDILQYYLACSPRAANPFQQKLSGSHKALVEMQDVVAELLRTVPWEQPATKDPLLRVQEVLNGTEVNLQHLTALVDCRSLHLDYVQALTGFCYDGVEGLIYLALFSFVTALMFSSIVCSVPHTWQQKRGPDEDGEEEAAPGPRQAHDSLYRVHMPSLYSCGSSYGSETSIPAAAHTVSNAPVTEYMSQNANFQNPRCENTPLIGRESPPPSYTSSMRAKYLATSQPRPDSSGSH
Sequence of UniProt Q4G0N4 (Q4G0N4 whole entry): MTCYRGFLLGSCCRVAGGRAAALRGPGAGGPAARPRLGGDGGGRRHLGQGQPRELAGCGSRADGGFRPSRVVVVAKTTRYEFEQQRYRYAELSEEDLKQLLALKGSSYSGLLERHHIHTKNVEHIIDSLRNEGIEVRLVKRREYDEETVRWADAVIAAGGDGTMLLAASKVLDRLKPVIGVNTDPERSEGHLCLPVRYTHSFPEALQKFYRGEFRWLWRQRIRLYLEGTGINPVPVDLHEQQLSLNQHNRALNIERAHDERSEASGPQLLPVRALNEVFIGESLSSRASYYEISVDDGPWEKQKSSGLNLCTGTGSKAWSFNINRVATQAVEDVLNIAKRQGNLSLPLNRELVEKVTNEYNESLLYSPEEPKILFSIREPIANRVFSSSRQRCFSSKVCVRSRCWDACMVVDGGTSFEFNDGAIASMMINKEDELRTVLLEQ
Sequence of UniProt Q6ZT12 (Q6ZT12 whole entry): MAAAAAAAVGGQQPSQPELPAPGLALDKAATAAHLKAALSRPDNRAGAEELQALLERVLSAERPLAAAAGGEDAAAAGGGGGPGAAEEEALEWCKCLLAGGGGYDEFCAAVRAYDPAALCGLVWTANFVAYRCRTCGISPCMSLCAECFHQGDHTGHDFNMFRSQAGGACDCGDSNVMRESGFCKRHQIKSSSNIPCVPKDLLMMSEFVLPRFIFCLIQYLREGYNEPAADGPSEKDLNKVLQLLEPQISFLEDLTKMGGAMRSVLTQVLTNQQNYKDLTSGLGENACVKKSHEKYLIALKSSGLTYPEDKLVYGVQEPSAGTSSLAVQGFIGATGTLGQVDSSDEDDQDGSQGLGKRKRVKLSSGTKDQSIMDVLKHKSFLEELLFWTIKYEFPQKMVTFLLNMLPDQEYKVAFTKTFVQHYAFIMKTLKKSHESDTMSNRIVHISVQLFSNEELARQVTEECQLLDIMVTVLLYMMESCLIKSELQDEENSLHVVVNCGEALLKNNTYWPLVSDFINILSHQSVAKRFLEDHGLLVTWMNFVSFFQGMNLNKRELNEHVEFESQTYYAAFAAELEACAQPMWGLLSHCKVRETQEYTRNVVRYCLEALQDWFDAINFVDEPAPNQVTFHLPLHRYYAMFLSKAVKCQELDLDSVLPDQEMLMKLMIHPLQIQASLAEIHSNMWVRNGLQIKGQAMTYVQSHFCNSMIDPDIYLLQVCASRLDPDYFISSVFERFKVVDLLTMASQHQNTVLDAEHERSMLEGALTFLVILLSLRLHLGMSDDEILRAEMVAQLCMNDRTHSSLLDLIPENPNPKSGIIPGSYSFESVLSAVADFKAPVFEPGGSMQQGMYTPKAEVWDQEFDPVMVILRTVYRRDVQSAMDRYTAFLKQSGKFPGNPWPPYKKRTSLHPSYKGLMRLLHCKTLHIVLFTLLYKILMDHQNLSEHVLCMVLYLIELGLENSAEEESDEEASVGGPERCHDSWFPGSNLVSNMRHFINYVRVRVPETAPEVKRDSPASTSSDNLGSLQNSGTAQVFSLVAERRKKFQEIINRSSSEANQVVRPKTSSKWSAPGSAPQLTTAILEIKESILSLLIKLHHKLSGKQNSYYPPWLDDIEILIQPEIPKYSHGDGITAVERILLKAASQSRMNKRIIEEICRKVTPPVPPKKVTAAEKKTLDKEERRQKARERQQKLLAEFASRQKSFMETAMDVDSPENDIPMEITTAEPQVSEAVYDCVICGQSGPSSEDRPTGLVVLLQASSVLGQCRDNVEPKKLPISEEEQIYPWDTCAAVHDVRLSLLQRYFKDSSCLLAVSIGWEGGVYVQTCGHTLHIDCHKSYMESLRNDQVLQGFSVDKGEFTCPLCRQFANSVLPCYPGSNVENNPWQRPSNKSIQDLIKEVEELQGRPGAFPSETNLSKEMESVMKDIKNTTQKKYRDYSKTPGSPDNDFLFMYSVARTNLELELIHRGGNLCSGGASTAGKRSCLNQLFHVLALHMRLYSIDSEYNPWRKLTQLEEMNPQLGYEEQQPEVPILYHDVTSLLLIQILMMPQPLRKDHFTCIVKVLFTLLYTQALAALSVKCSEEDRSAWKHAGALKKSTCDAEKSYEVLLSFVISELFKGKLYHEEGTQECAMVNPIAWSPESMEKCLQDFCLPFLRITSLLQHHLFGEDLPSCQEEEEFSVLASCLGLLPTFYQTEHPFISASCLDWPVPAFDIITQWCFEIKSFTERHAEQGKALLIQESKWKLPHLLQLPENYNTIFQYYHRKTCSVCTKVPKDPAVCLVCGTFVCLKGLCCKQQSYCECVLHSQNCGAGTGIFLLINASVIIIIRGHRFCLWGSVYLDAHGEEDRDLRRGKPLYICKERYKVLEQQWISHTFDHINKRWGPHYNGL
Sequence of UniProt Q9NUQ8 (Q9NUQ8 whole entry): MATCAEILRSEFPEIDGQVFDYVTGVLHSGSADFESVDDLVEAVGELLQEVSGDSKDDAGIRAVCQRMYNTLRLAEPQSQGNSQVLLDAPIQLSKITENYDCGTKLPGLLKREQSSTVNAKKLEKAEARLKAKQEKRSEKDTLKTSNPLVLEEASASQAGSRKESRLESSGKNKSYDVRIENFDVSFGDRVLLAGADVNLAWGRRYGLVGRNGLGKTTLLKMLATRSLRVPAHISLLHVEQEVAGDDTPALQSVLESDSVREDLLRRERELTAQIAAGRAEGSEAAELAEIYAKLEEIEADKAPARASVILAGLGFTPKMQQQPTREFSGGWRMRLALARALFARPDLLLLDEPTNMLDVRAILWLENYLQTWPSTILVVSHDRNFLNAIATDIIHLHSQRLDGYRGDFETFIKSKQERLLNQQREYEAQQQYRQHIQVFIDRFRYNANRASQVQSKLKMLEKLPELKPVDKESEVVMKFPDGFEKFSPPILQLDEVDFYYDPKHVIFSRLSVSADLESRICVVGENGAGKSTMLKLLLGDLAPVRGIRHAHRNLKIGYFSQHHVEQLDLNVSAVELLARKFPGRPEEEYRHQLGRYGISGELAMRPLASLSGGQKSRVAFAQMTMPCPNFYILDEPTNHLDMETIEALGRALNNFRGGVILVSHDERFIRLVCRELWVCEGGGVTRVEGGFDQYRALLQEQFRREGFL
Sequence of UniProt O60832 (O60832 whole entry): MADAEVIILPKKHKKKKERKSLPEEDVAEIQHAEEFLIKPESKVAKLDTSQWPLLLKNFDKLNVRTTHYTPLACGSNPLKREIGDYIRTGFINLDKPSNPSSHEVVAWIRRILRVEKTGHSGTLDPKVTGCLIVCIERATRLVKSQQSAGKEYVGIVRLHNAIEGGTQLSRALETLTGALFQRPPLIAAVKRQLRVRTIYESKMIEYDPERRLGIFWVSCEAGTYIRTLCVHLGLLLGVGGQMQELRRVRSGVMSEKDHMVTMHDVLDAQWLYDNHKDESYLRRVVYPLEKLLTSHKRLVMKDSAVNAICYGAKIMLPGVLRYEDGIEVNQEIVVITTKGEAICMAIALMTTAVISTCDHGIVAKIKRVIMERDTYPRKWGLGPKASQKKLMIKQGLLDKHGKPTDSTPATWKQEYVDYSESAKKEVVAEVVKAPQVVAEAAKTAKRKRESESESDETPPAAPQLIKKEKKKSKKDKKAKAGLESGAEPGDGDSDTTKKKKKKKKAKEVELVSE
Sequence of UniProt Q8WZA0 (Q8WZA0 whole entry): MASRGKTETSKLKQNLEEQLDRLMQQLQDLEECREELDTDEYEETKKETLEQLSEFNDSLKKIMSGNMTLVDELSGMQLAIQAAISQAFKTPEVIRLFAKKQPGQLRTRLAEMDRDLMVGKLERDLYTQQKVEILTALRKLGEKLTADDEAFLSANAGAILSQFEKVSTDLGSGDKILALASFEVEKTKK

On to FAM45BP|FAM45A, for which the thermal stability z-score stood at 0.335 in the experiment with lipoamide (setting [1]), 1.28 in the experiment with lipoamide (arsenate co-treatment: none) and 1.44 with potassium arsenate.
On to XIAP (UniProt P98170), for which the figures for the thermal stability z-score with lipoamide (setting [1]), in the experiment with lipoamide (arsenate co-treatment: none) and in the experiment with potassium arsenate were -0.12, -0.0464 and -0.747, respectively.
The matching figures for ACTR5 (UniProt Q9H9F9): -0.0353, -0.0633 and -0.0841.
The matching figures for DDRGK1 (UniProt Q96HY6): -1.17, -0.728 and 0.397.
The matching figures for UBE2Q1 (UniProt Q7Z7E8): -0.546, -0.425 and -0.514.
In the case of ITGA1 (UniProt P56199), the results for the thermal stability z-score in the experiment with lipoamide (setting [1]), with lipoamide (arsenate co-treatment: none) and with potassium arsenate were 0.216, 0.171 and -0.126, respectively.
The matching figures for ZRANB2 (UniProt O95218): -0.755, -0.097 and -0.286.
The matching figures for TTYH3 (UniProt Q9C0H2): 0.027, 0.0475 and -0.648.
The matching figures for MED17 (UniProt Q9NVC6): 0.255, -0.466 and -0.697.
In the case of RPL18A (UniProt Q02543), the thermal stability z-score was 0.628 with lipoamide (setting [1]), 0.246 with lipoamide (arsenate co-treatment: none) and -0.333 in the experiment with potassium arsenate.
The matching figures for HECTD4 (UniProt Q9Y4D8): -0.345, 0.341 and 0.284.
The matching figures for ABCF3 (UniProt Q9NUQ8): -0.505, -0.0312 and 0.516.
The matching figures for THRAP3 (UniProt Q9Y2W1): 1.84, 0.438 and -0.985.
On to ZSWIM8 (UniProt A7E2V4), for which the thermal stability z-score was 0.028 with lipoamide (setting [1]), 0.0796 with lipoamide (arsenate co-treatment: none) and -0.0789 in the experiment with potassium arsenate.
The matching figures for A0A0B4J2A0|SHPK: -0.157, -0.0688 and -0.112.
The matching figures for ETFDH (UniProt Q16134): 0.283, 0.37 and -0.886.
In the case of LZIC (UniProt Q8WZA0), the values for the thermal stability z-score in the experiment with lipoamide (setting [1]), in the experiment with lipoamide (arsenate co-treatment: none) and with potassium arsenate were 0.558, 0.781 and 0.906, respectively.
The matching figures for DKC1 (UniProt O60832): 0.735, 0.39 and 0.437.
The matching figures for SHROOM1 (UniProt Q2M3G4): -0.159, -0.157 and 0.508.
The matching figures for NADK2 (UniProt Q4G0N4): 0.539, 0.491 and -0.584.
In the case of ACAT1 (UniProt P24752), the results for the thermal stability z-score in the experiment with lipoamide (setting [1]), in the experiment with lipoamide (arsenate co-treatment: none) and with potassium arsenate were 0.399, 1.07 and 0.878, respectively.
As to EIF2S2 (UniProt P20042), the thermal stability z-score in the experiment with lipoamide (setting [1]) was 0.121; in the experiment with lipoamide (arsenate co-treatment: none), 0.0416; with potassium arsenate, -0.16.
Turning to SEZ6L2 (UniProt Q6UXD5), the thermal stability z-score amounted to 0.143 with lipoamide (setting [1]), 2.4 in the experiment with lipoamide (arsenate co-treatment: none) and 3.82 in the experiment with potassium arsenate.
The matching figures for IKBKG (UniProt Q9Y6K9): -0.275, -0.162 and -0.992.
Consider TTC5 (UniProt Q8N0Z6), for which the thermal stability z-score was -0.0841 with lipoamide (setting [1]), 0.0677 with lipoamide (arsenate co-treatment: none) and -0.0548 in the experiment with potassium arsenate.
The matching figures for UBR3 (UniProt Q6ZT12): 0.0839, 0.139 and -0.007.
The matching figures for IL1RAP (UniProt Q9NPH3): -0.15, -0.0435 and -0.164.
The matching figures for ACAD8 (UniProt Q9UKU7): 0.0722, -0.0632 and -0.989.
Regarding NAV1 (UniProt Q8NEY1), the thermal stability z-score is -0.0334 with lipoamide (setting [1]), 0.0173 with lipoamide (arsenate co-treatment: none) and 0.073 with potassium arsenate.
The matching figures for WIPF2 (UniProt Q8TF74): 0.726, 0.703 and 0.0475.
The matching figures for GPR126 (UniProt Q86SQ4): -1.33, -1.02 and -0.42.
The matching figures for ADA (UniProt P00813): 0.792, 0.403 and -0.000857.
With UBAP1 (UniProt Q9NZ09), the thermal stability z-score with lipoamide (setting [1]) is -1.2; with lipoamide (arsenate co-treatment: none), -0.177; with potassium arsenate it was -0.964.
Regarding BCKDK (UniProt O14874), the thermal stability z-score was 0.0555 with lipoamide (setting [1]), -0.559 with lipoamide (arsenate co-treatment: none) and 0.935 with potassium arsenate.
The matching figures for WDR36 (UniProt Q8NI36): 0.0966, 0.698 and -0.285.
The matching figures for RAB24 (UniProt Q969Q5): 0.205, 0.12 and -0.143.
The matching figures for STRN (UniProt O43815): 0.402, 0.602 and 0.345.
SPAG5 (UniProt Q96R06): the thermal stability z-score with lipoamide (setting [1]) was -0.791; with lipoamide (arsenate co-treatment: none), -0.122; with potassium arsenate, -0.162.
The matching figures for FUNDC2 (UniProt Q9BWH2): 0.0791, -0.555 and -0.587.
The matching figures for CLPP (UniProt Q16740): 0.049, -0.299 and 0.151.
The matching figures for HSD17B8 (UniProt Q92506): 0.281, 0.0946 and -0.785.
Take LIMA1 (UniProt Q9UHB6): the thermal stability z-score is -0.552 in the experiment with lipoamide (setting [1]), -0.44 with lipoamide (arsenate co-treatment: none) and -1 with potassium arsenate.
The matching figures for LUZP1 (UniProt Q86V48): -0.424, -0.079 and -0.191.
